Structures can show the parent of a compound that is named as a salt.
Key:
[1] = in vivo; conditions: mouse, po, single application, 7-day, unfed white NMRI-mice, read-out: Toxicity LD50 p.o.
Method: The acute 7-day-toxicity is determined after a single application per os in white NMRI-mice which had not been fed. The calculation of the LD50 is carried out by probitanalysis by means of electronic data processing (see L. Cavalli-Sforza, Gustav Fischer-Verlag, Stuttgart (1964), Grundbegriffe der Biometrie, pp. 153).

[2] = tested on: secretion in the stomach; experiment: Effect on the secretion in the stomach of narcotized rats (determination of the pH-value); format: in vivo, rat; conditions: for inhibition at 300 mg/kg: dosage 300 mg/kg p.o., narcotized rat, acetylcholine 10 mg/kg i.p. control = 100
Method: 3. Effect on the secretion in the stomach of narcotized rats (determinationof the pH-value)
The test is performed on narcotized (urethane narcosis) male rats, having a body weight of from 200-230 g. For this purpose N/4000-sodium hydroxide solution is perfused into the stomachs of rats at a rate of 1 ml per minute by means of a cardia- and pylorus-catheter. The pH value of the perfusate, which leaves the stomach by way of the pylorus catheter, is determined by means of a one-rod measuring system, and is continuously registered.
In order to perform a comparative control test, after a pre-run period of 20 minutes, 10 mg per kg of acetylcholine are applied intraperitoneously. The resulting comparative control value is defined as being 100.
For evaluation, the surface-integral is calculated numerically with the aid of the rule of Simpson. The degree of inhibition of the secretion is calculated from the difference between the surfaces before and after the application of the test compound.

[3] = tested on: indomethacine-induced ulcers; experiment: Effectiveness against indomethacine-induced ulcers in the rat; format: in vivo; conditions: for inhibition at 68 mg/kg: dosage 68 mg/kg p.o.
Method: To at least 6 male rats, having a body-weight of from 170 to 220 g, dosages of the test compounds are administered orally in an amount of 0.5 ml of a suspension medium per 100 g animal body-weight. The animals of the blank control group received the corresponding amount by volume of the suspension medium only. One hour after application of the test compounds, a dosage of 20 mg per kg of indomethacine contained in an amount of 0.5 ml of a suspension per 100 g animal body-weight, are orally applied to each animal for producing ulcers. 24 hours after the application of indomethacine, the animals are sacrificed.
The mean value and the standard deviation of the numbers of ulcers is calculated and subsequently the inhibiting activity of the test compounds and a standard compound are calculated as percent inhibition compared with the blank control group.

[4] = tested on: ulcer; conditions: background; cited from earlier work
[5] = po, rat, indomethacine 20 mg/kg p.o., 24 hours

With `CN(CC(O)CNC(=O)c1ccco1)c1ccc(Cl)cc1` (stereo not drawn) [Compound 4, N1-(2-furoyl)-N2-methyl-N2-(4-chlorophenyl)-1,3-diaminopropan-2-ol] the LD50 at 168 h [1] was over 1470 mg/kg, the inhibition at 300 mg/kg [2] was 0% and the inhibition at 68 mg/kg [3, 5] was 44%.

In the case of `CN(CC(O)CNC(=O)c1ccccc1C(F)(F)F)c1ccc(Cl)cc1` (stereo not drawn) [Compound 3, N1-(2-trifluoromethylbenzoyl)-N2-methyl-N2-(4-chlorophenyl)-1,3-diaminopropan-2-ol], the LD50 at 168 h [1] is reported as over 1470 mg/kg, the inhibition at 300 mg/kg [2] is reported as 0% and the inhibition at 75 mg/kg ([3]; po, dosage 75 mg/kg p.o., rat, indomethacine 20 mg/kg p.o., 24 hours) is reported as 40%.

Molecule `CN(CC(O)CNC(=O)c1ccccc1F)c1ccc(Cl)cc1` (stereo not drawn) [Compound 2, N1-(2-fluorobenzoyl)-N2-methyl-N2-(4-chlorophenyl)-1,3-diaminopropan-2-ol] has an LD50 at 168 h [1] of over 1470 mg/kg, an inhibition at 300 mg/kg [2] of 0% and an inhibition at 68 mg/kg [3, 5] of 49%.

For `CN1[C@@H]2CC[C@H]1C[C@@H](OC(=O)C(CO)c1ccccc1)C2` (stereo partly drawn) [A, atropine sulfate, reference compound], the inhibition at 0.5 mg/kg ([2]; Rattus norvegicus, ip, read-out: Inhibition of secretion in the stomach, % inhibition) was 100%, the “inhibition of the secretion in the stomach (in words)” value ([2]; at a low dosage already (footnote to Table 1)) was “strong inhibition” and the “effect on the ulcer (in words)” value ([3]; at the low dosage that inhibits secretion (footnote to Table 1)) was “does not have a sufficiently”. The inhibition at 12 mg/kg ([3]; po, dosage 12 mg/kg p.o., rat, indomethacine 20 mg/kg p.o., 24 hours) was 26%, the “side effects in ulcer therapy (in words)” value [4] was “side effects which occur already at low dosages” and the “success in ulcer therapy (in words)” value [4] was “have not succeeded in ulcer therapy”.

In the case of `COc1ccc(C(=O)NCC(O)CN(C)c2ccc(Cl)cc2)cc1OC` (stereo not drawn) [Compound 1, N1-(3,4-dimethoxybenzoyl)-N2-methyl-N2-(4-chlorophenyl)-1,3-diaminopropan-2-ol], the LD50 at 168 h [1] is reported as over 6810 mg/kg, the inhibition at 300 mg/kg [2] is reported as 0% and the inhibition at 68 mg/kg [3, 5] is reported as 44%.

From US4177287A, “Pharmaceutical compositions of N1 -acyl-N2 -phenyldiaminopropanols and process for their preparation” (Kali-Chemie Pharma GmbH, priority 1977, dated 1979)
